In patent US10307407B2, “9H-pyrimido [4,5-B] indoles as BET bromodomain inhibitors” (THE REGENTS OF THE UNIVERSITY OF MICHIGAN, priority 2015, dated 2019):

Tests used:
LNCaP cells = experiment: Cell growth inhibition, 4-day proliferation assay, LNCaP; type: cell-based; details: Homo sapiens, 96 h, prostate cancer cell line, 4 days treatment
Method: (§1) The effect of representative Compounds of the Disclosure on cell viability was determined in a 4-day proliferation assay. Cells were maintained in the appropriate culture medium with 10% FBS at 37° C. and an atmosphere of 5% CO2. All the cell lines were used within three months of thawing fresh vials.
(§2) Cells were seeded in 96-well flat bottom (Corning COSTAR, Corning, NY, cat#3595) or white opaque cell culture plates (BD Falcon, cat#353296) at a density of 3,000-10,000 cells/well in 75 μl of culture medium. Compounds were serially diluted in the appropriate medium, and 75 μl of the diluted compounds were added to the appropriate wells of the cell plate. After the addition of compounds, the cells were incubated at 37° C. in an atmosphere of 5% CO2 for 4 days. Cell viability was determined using the CellTiter-Glo® Luminescent Cell Viability Assay Kit (Promega, Madison, Wis.) for RS4-11 and MV4-11 cells and WST (2-(2-methoxy-4-nitrophenyl)-3-(4-nitrophenyl)-5-(2,4-disulfophenyl)-2H-tetrazolium, monosodium salt) Cell Counting-8 Kit (Dojindo Molecular Technologies, Inc., Rockville, Md.) for MDA-MB-231 cells according to the manufacturers' instructions.
(§3) Cell growth inhibition of representative Compounds of the Disclosure in representative breast cancer (MDA-MB-231), acute leukemia (MV4-11), and prostate cancer cell lines (LNCaP), as determined by a WST assay, are presented in Table 3. Cells were treated with each inhibitor for 4 days.

MV4-11 cells = experiment: Cell growth inhibition, 4-day proliferation assay, MV4-11; type: cell-based; details: Homo sapiens, MV4-11, 96 h, acute leukemia cell line, 4 days treatment
Method: as §1, §2
For CellTiter-Glo assay (RS4-11 and MV4-11 cells), 100 μl of CellTiter-Glo® Reagent was added to each well, and then the plates were incubated at room temperature for 10-20 minutes. The luminescent signal was measured using a Tecan Infinite M1000 multimode microplate reader (Tecan, Morrisville, N.C.). The readings were normalized to the DMSO-treated cells and the IC50 was calculated by nonlinear regression (four parameters sigmoid fitted with variable slope, least squares fit, and no constraint) analysis using the GraphPad Prism 5 software.
as §3

recombinant BRD4 BD2 = target: T1, recombinant BRD4 BD2 (Homo sapiens, UniProt O60885); experiment: Competitive fluorescence-polarization (FP) binding assay, BRD4 BD2; details: FAM labeled probe 1.5 nM, protein 6 nM, pH 6.5
T1 construct: recombinant BRD4 BD1 and BRD4 BD2 proteins
Method: (§4) Fluorescence Polarization (FP) competitive binding studies were carried out using a FAM labeled fluorescent probe (ZBA248 or BRD-1F) to determine binding affinities of representative Compounds of the Disclosure for recombinant BRD4 BD1 and BRD4 BD2 proteins. For example, equilibrium dissociation constants (Kd) values of ZBA248 to these six proteins were determined from protein saturation experiments by monitoring the total fluorescence polarization of mixtures composed with the fluorescent probe at a fixed concentration and proteins with increasing concentrations up to full saturation. Serial dilutions of testing protein were mixed with ZBA248 to a final volume of 200 μl in the assay buffer. In order to achieve large dynamic rages, particularly for BD1 bromodomains, 100 mM phosphate buffer (pH=6.5, 0.01% Triton X-100 (Sigma, 282103) being added right before assays) was used as the assay buffer. Final ZBA248 concentration was 1.5 nM for all proteins. Plates were incubated at room temperature for 30 minutes with gentle shaking to assure equilibrium. FP values in millipolarization units (mP) were measured using the Infinite M-1000 plate reader (Tecan U.S., Research Triangle Park, N.C.) in Microfluor 1 96-well, black, round-bottom plates (Thermo Scientific, Waltham, Mass.) at an excitation wavelength of 485 nm and an emission wavelength of 530 nm. Kd values of ZBA248 were calculated by fitting the sigmoidal dose-dependent FP increases as a function of protein concentrations using Graphpad Prism 6.0 software (Graphpad Software, San Diego, Calif.).
(§5) The IC50 and Ki values of representative Compounds of the Disclosure were determined in a competitive binding experiment as described above. Mixtures of 10 μl of the tested compounds in assay buffer with 40% Ethylene Glycol and 190 μl of preincubated protein/probe complex solution in the assay buffer (100 mM potassium phosphate, pH 6.5, 0.01% Triton X-100) were added into assay plates which were incubated at room temperature for 30 minutes with gentle shaking. Final concentrations of proteins were 10 and 6 nM in assays for BD1 and BD2 of BRD4, respectively. Final probe concentration is 1.5 nM in all assays. Negative controls containing protein/probe complex only (equivalent to 0% inhibition), and positive controls containing only free probes (equivalent to 100% inhibition), were included in each assay plate. FP values were measured as described above. IC50 values were determined by nonlinear regression fitting of the competition curves. Instead of being calculated from IC50 values as described before, Ki values of competitive inhibitors were obtained directly by nonlinear regression fitting as well, based upon the Kd values of the probe to different proteins, and concentrations of the proteins and probes in the competitive assays (Wang, FEBS Lett. 360; 111 (1995); Zhang et al., Analytical Biochemistry, 331; 138 (2004)).
(§6) Binding affinities of representative Compounds of the Disclosure to BRD4 BD1 and BRD4 BD2 proteins in competitive, fluorescence-polarization assays are presented in Table 2.

MDA-MB-231 cells = experiment: Cell growth inhibition, 4-day proliferation assay (WST), MDA-MB-231; type: cell-based; details: Homo sapiens, MDA-MB-231, 96 h, breast cancer cell line, 4 days treatment
Method: as §1, §2
For WST assay (MDA-MB-231 cells), WST-8 reagent was added to each well at a final concentration of 10% (v/v), and then the plates were incubated at 37° C. for 1-2 hours for color development. The absorbance was measured at 450 nm using a SPECTRAmax PLUS plate reader (Molecular Devices, Sunnyvale, Calif.). The readings were normalized to the DMSO-treated cells and the half maximal inhibitory concentration (IC50) was calculated by nonlinear regression (four parameters sigmoid fitted with variable slope, least squares fit, and no constraint) analysis using the GraphPad Prism 5 software (GraphPad Software, La Jolla, Calif.).
as §3

recombinant BRD4 BD1 = target: T2, recombinant BRD4 BD1 (Homo sapiens, UniProt O60885); experiment: Competitive fluorescence-polarization (FP) binding assay, BRD4 BD1; details: FAM labeled probe 1.5 nM, protein 10 nM, pH 6.5
T2 construct: recombinant BRD4 BD1 and BRD4 BD2 proteins
Method: as §4, §5, §6

With `CCn1nc(C2CC2)cc1Nc1nc(COC)nc2[nH]c3cc(-c4c(C)noc4C)c(OC)cc3c12` [Cpd. No. 5, N-(3-cyclopropyl-1-ethyl-1H-pyrazol-5-yl)-7-(3,5-dimethylisoxazol-4-yl)-6-methoxy-2-(methoxymethyl)-9H-pyrimido[4,5-b]indol-4-amine] the IC50 (LNCaP cells) was 3 nM, the IC50 (MV4-11 cells) was 3 nM and the IC50 (recombinant BRD4 BD2) was 2.4 nM. It also gave an IC50 (MDA-MB-231 cells) of 13 nM and an IC50 (recombinant BRD4 BD1) of 5.5 nM.
